# PubChem BioAssay AID351 (ChemBlock, 2006)
# Calls of active or inactive are those of the source.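 The calls were made as follows: active = compounds that disrupt early egg division and make hatched embryos spin fast in place instead of swimming forward; inactive = the rest.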 Square brackets hold non-standard residues; d marks the D form. Peptide text beside a SMILES is read from it. * marks the point of attachment. ξ: configuration not given here. X1 = COC1=CC(=O)N(C(=O)C(O*)C(C)C)C1Cc1ccccc1; ξNMe2Val = CC(C)C(C(=O)*)N(C)C; NMeV = CN[CH](C(=O)O)C(C)C
# Test system: not listed separately
# Experiment: sea urchin embryo cleavage alteration, tubulin destabilizer project, whole organism, microscopy (AID 351)
# Conditions: sea urchin embryo, cleavage alteration, microscopy
row,SMILES,outcome
1,CS(=O)(=O)c1ccc(Nc2nnc(-c3ccccc3N)o2)cc1,inactive; up to 5 mM
2,CCOc1cc2c(cc1OCC)C(c1cc(OC)c(OC)c(OC)c1)NCC2 (stereo unspecified),inactive; up to 50 µM
3,COC(=O)c1ccccc1NC(=O)Cn1nnc(-c2ccc(OC)cc2)n1,inactive; up to 5 mM
4,CCOc1cc2c(cc1OCC)C(c1cc(OC)c(O)c(OC)c1)NCC2 (stereo unspecified),inactive; up to 50 µM
5,COc1cccc(NC(=O)C(=O)c2c[nH]c3ccccc23)c1,inactive; up to 5 mM
6,O=C(C(=O)c1ccc2c(c1)OCO2)c1ccc2c(c1)OCO2,inactive; up to 2 mM
7,O=C(CC1(O)C(=O)N(Cc2ccc(F)cc2)c2ccccc21)c1ccc2c(c1)OCO2 (stereo unspecified),inactive; up to 2.5 µM
8,NC(=O)CCNCc1cccnc1,inactive; up to 10 µM

# Test system: sea urchin embryo, cleavage alteration, microscopy
# Experiment: as above
# Conditions: not given
row,SMILES,threshold concentration
1,CCOc1ccc(Nc2nc(-c3c(C)nc4cc(C)ccn34)cs2)cc1,200 nM
2,COc1cc(N)c(-c2nnc(Nc3ccc4c(c3)OCO4)o2)c(OC)c1,50 nM
3,COc1ccc(NC(=O)C(=O)c2cn(Cc3ccc(Cl)cc3)c3ccccc23)cc1,50 nM
4,O=C(Nc1ccncc1)C(=O)c1cn(Cc2ccc(Cl)cc2)c2ccccc12,10 nM
5,COc1cc2c(c(OC)c1OC)-c1ccc(OC)c(=O)cc1C(NC(C)=O)CC2 (stereo unspecified),50000 nM
6,Cc1ccc(Nc2nc(-c3c(C)nc4sccn34)cs2)cc1,5 nM
7,COc1ccc(NC(=O)C(=O)c2c[nH]c3ccccc23)cc1,1 nM
8,COc1cccc(NC(=O)C(=O)c2cn(Cc3ccc(Cl)cc3)c3ccccc23)c1,4000 nM
9,COc1ccc(-c2nnc(-c3ccc(OC)c(OC)c3)o2)cc1OC,500 nM
10,Cc1nc2sccn2c1-c1csc(Nc2ccc(Cl)cc2)n1,100 nM
11,COC(=O)c1[nH]c2ccccc2c1NCc1ccncc1,500 nM
12,Nc1csnc1-c1nnc(Nc2ccc(Cl)cc2)o1,200 nM
13,Nc1c(C(=O)c2ccccc2)sc2nc3c(cc12)CCCC3,20 nM
14,Cc1cc(NC(=O)C(=O)c2cn(Cc3ccc(Cl)cc3)c3ccccc23)no1,10 nM
15,Cc1nc2ncccn2c1-c1csc(Nc2ccc(Cl)cc2)n1,100 nM
16,Nc1cn[nH]c1-c1nc(-c2cccc(F)c2)n[nH]1,500 nM
17,c1cncc(CNc2ccccc2-c2nnc(Nc3ccc4c(c3)OCO4)o2)c1,1 nM
18,COc1ccc(-c2c(-c3ccccc3)noc2N)cc1OC,500 nM
19,c1ccc(-c2nnc(Nc3ccc4c(c3)OCO4)o2)c(NCc2ccncc2)c1,0.5 nM

row,SMILES,threshold concentration
1,c1ccc(-c2nnc(Nc3ccc4c(c3)OCCO4)o2)c(NCc2ccncc2)c1,0.5 nM
2,O=C(Nc1ccc2c(c1)OCCO2)C(=O)c1c[nH]c2ccccc12,2 nM
3,O=C(Nc1ccc2c(c1)OCO2)C(=O)c1cn(Cc2ccc(Cl)cc2)c2ccccc12,50 nM
4,COc1ccc(C2=N[C@H](c3ccc(OC)cc3)[C@H](c3ccc(OC)cc3)N2)cc1,500 nM
5,Nc1cc2c(cc1-c1nnc(Nc3ccc4c(c3)OCO4)o1)OCO2,50 nM
6,COc1ccc(-c2nc3sc4c(c3c(=O)[nH]2)CCCC4)c2ccccc12,50 nM
7,Cc1nc2sccn2c1-c1csc(Nc2ccccc2Cl)n1,200 nM
8,Nc1ccccc1-c1nnc(Nc2ccc3c(c2)OCCO3)o1,1 nM
9,CCOc1ccc(Nc2nc(-c3c(C)nc4ncccn34)cs2)cc1,5 nM
10,COc1ccc(-c2nnc(Nc3ccc4c(c3)OCCO4)o2)c(N)c1,25 nM
11,CCC1=CCN2CCC34c5cc(C6(C(=O)OC)CC7CN(CCc8c6[nH]c6ccccc86)CC(O)(CC)C7)c(OC)cc5N(C)C3C(O)(C(=O)OC)C(OC(C)=O)C1C24 (stereo unspecified),200 nM
12,c1cncc(CNc2ccccc2-c2nnc(Nc3ccc4c(c3)OCCO4)o2)c1,1 nM
13,COC(=O)Nc1nc2ccc(C(=O)c3cccs3)cc2[nH]1,5 nM
14,c1ccc(-c2nnc(Nc3ccc4c(c3)OCCO4)o2)c(NCc2ccns2)c1,2000 nM
15,O=C1c2cccc(O)c2C(=O)c2c(O)cc(CO)cc21,20000 nM
16,COC1=CC(=O)N(C(=O)C(OC(=O)C2CCCN2C(=O)C2CCCN2C(=O)C(C(C)C)N(C)C(=O)C(NC(=O)C(C(C)C)N(C)C)C(C)C)C(C)C)C1Cc1ccccc1 (stereo unspecified) (ξNMe2Val-V[NMeV]PP-X1; configuration not given here),5 nM
17,O=C(Nc1ccc2c(c1)OCCO2)C(=O)c1cn(Cc2ccc(Cl)cc2)c2ccccc12,100 nM
18,CCOc1ccc(Nc2nc(-c3c(C)nc4sccn34)cs2)cc1,50 nM
19,COc1cc2c(cc1O)CCC1C2CCC2(C)C(O)CCC12 (stereo unspecified),200 nM
